# Reference: patent US10330683B2, “Mutant smoothened and methods of using the same” (Genentech, Inc., priority 2015, dated 2019)
# “Also recorded” adds a separate entry of the source.
# Key:
# [1] = system: PPT CGNPs expressing vismodegib-resistant SMO mutants; assay: methyl-[3H]-thymidine incorporation (proliferation) of virally transduced PPT CGNPs after removal of SHH; format: cell-based, mice; conditions: 1 μM JQ1; FIG. 16B
# From the text: (§1) It has previously been noted that Hh-driven tumor cells rapidly lose their Hh pathway dependence during culturing (Sasai et al., 2006). However, CGNPs proliferate in vivo in a Hh dependent manner and maintain their Hh pathway dependence in culture for a finite period (Wechsler-Reya and Scott, 1999). CGNPs isolated from Ptch1loxp/loxp Tp53loxp/loxp Rosa26LSL-tdTomato (PPT) pups were infected with lentiviral constructs expressing a SMO variant together with an enhanced green fluorescent protein (eGFP)-Cre fusion protein (FIG. 12C). The Cre recombinase induces loss of Ptch1 and thus ensures that only transduced CGNPs can proliferate in the absence of exogenous Sonic hedgehog ligand (SHH; FIG. 11D). […] Proliferation by methyl-[3H]-thymidine incorporation was monitored, while Cre-dependent tandem dimer (td) Tomato expression enabled visualization and quantification of infected cells. This system also enabled better model patient genetics because most of the SMO mutations were identified in tumors that harbored TP53 mutations and were driven by loss of PTCH1. […] It was confirmed that CGNPs were infected at similar frequencies by fluorescence-activated cell sorting (FACS) analysis for Cre-dependent tdTomato reporter expression, and that the SMO variants were expressed at equivalent levels by quantitative reverse transcription (qRT) PCR.
# (§2) Cerebella from post-natal day 5-7 Ptch1^loxp/loxp Rosa26^LSLtdTomato Tp53^loxp/loxp mice were dissociated in 0.05% Trypsin for 10 min at 37° C. Cells were collected by centrifugation at 514×g for 10 min at 4° C., resuspended in CGNP media (Neurobasal medium (Life Technologies) containing 1×B27 (without vitamin A; Life Technologies), 0.45% glucose (Sigma Aldrich), 25 mM KCl, 0.4% bovine serum albumin (Sigma Aldrich), 2 mM glutamine, 100 U/ml Penicillin (Life Technologies), 100 μg/ml Streptomycin (Life Technologies), 200 ng/ml octylated recombinant SHH) and filtered through a 0.45 μm filter (Falcon). Cells were plated in poly-D-lysine coated 6-well plates (Corning) at 5×10E5 cells/well and infected with lentivirus at a multiplicity of infection (MOI) of 1. After 24 hr, cells were harvested by trypsinization, collected in CGNP media and replated for downstream applications.
# (§3) To examine the effects of HPIs on proliferation, virally transduced CGNPs were plated in poly-D-lysine-coated 96-well plates (Corning) at 25,000 cells/well in CGNP media without SHH. […] After 24 hr, cells were pulsed with 1 μCi/ml methyl-[^3H]-thymidine (Amersham/GE Healthcare) and cultured for an additional 16-24 hr. Cells were harvested onto 96-well filter plates (Perkin Elmer) using a Filtermate Cell Harvester (Perkin Elmer), and incorporated radioactivity was quantified by liquid scintillation spectrophotometry on a TopCount NXT (PerkinElmer).
# [2] = system: PPT CGNPs infected with SMO-WT and Cre; assay: as above; format: cell-based, mice
# From the text: as §1, §2, §3
# SMO-N219D [3] = conditions: cited from earlier work
# SMO-L221R = conditions: cited from earlier work
# SMO-D384N [4] = conditions: cited from earlier work
# SMO-S387N [5] = conditions: cited from earlier work
# SMO-A459V = biological target: T1, SMO-A459V (Homo sapiens, UniProt Q99835, A459V); assay: Gli-luciferase based Hh reporter assay in C3H10T½ cells transfected with SMO constructs; format: cell-based, mouse; conditions: GLI1 luciferase reporter, FIGS. 5A-5C
# T1 construct: expressed in transfected cells; host or cells: C3H10T½ cells (mouse)
# Description: (§4) SMO mutants were generated in pRK5-SMO vectors as described (Dijkgraaf et al., 2011; Yauch et al., 2009) and were either utilized in Gli-luciferase reporter assays as described (Dijkgraaf et al., 2011) or cloned into lentiviral vectors for transduction of primary CGNP cultures. Proliferation was assayed using methyl-[3H]-thymidine incorporation (Kool et al., 2014).
# (§5) C3H10T½ cells (ATCC) were seeded into six-well plates at 1.75×10E5 cells/well in DMEM High Glucose with 4 mM glutamine, 10 mM Hepes pH 7.2 and 10% FBS. After 16 h cells were transfected with 400 ng of expression construct, 400 ng of 9×-Gli-BS and 200 ng of pRL-TK per well using GeneJuice Transfection Reagent (Novagen). For the PTCH1 inhibition experiments, cells were transfected with 200 ng SMO expression construct and an additional 200 ng of DNA containing varying ratios of PTCH1 to empty vector. Six hours later, cells from one well were trypsinized and redistributed over four wells of a 12-well plate. After 16 hours the FBS content of the culture medium was reduced to 0.5% to induce formation of primary cilia, and small molecule Hh inhibitors were added at indicated concentrations. Firefly luciferase activity was determined 24 hours later with the Dual-Glo Luciferase Assay System (Promega) and read using a Wallac EnVision plate reader (Perkin Elmer). […]
# SMO-D384N [6] = biological target: T2, SMO-D384N (Homo sapiens, UniProt Q99835, D384N); assay: as above; format: cell-based; conditions: 1 μM vismodegib, FIG. 13C
# T2 construct: expressed in transfected cells; host or cells: C3H10T½ cells (mouse)
# Description: as §4
# as §5, with “Elmer). Values were divided by renilla luciferase activities to normalize for transfection efficiency. Individual experiments were carried out in duplicate or triplicate and repeated at least once. Dose response data were fit to a 4-parameter equation in GraphPad Prism:” for “Elmer).”
# (§6) The top and bottom (B) values were constrained to be […] for each sample. ‘H’ is the Hill Slope.
# SMO-N219D [7] = biological target: T3, SMO-N219D (Homo sapiens, UniProt Q99835, N219D); assay: as above; format: cell-based; conditions: 1 μM vismodegib, FIG. 13C
# T3 construct: expressed in transfected cells; host or cells: C3H10T½ cells (mouse)
# Description: as §4
# as §5, with “Elmer). Values were divided by renilla luciferase activities to normalize for transfection efficiency. Individual experiments were carried out in duplicate or triplicate and repeated at least once. Dose response data were fit to a 4-parameter equation in GraphPad Prism:” for “Elmer).”
# as §6
# SMO-S387N [8] = biological target: T4, SMO-S387N (Homo sapiens, UniProt Q99835, S387N); assay: as above; format: cell-based; conditions: 1 μM vismodegib, FIG. 13C
# T4 construct: expressed in transfected cells; host or cells: C3H10T½ cells (mouse)
# Description: as §4
# as §5, with “Elmer). Values were divided by renilla luciferase activities to normalize for transfection efficiency. Individual experiments were carried out in duplicate or triplicate and repeated at least once. Dose response data were fit to a 4-parameter equation in GraphPad Prism:” for “Elmer).”
# as §6
# SMO-I408V = biological target: T5, SMO-I408V (Homo sapiens, UniProt Q99835, I408V); assay: [3H]-vismodegib binding to HEK-293 cells transfected with SMO constructs; conditions: 5 nM [3H]-vismodegib, cell surface levels similar to SMO-WT, FIG. 12B
# T5 construct: expressed in transfected cells; host or cells: HEK-293 cells
# Description: as §4
# (§7) 2×10E6 HEK-293 cells were seeded into 10-cm plates and transfected 16 hours later with 3 μg of either empty vector or SMO expression construct using GeneJuice (Novagen). Cells were harvested 40 hours later in PBS with 1 mM EDTA and fixed in PBS with 4% PFA for 10 minutes at room temperature (RT), after which they were washed 3× in PBS with 1 mM EDTA and plated into 96-well plates at 100,000 cells per well. […] of MicroScint fluid (Perkin Elmer) was added per well and counts per minute were assessed using a PerkinElmer TopCount NXT. All samples were analyzed in triplicate.
# activating SMO mutants = assay: as above; set-up: species or system human; conditions: all activating mutants tested; cell surface expression comparable to SMO-WT; FIG. 15C
# Description: as §4, §7
# [9] = system: PPT CGNPs infected with SMO DBP mutations; assay: methyl-[3H]-thymidine incorporation (proliferation) of virally transduced PPT CGNPs after removal of SHH; format: cell-based, mice; conditions: all DBP mutations; high levels of vismodegib (>1 μM); FIG. 12D
# From the text: as §1, §2, §3
# [10] = system: PPT CGNPs infected with SMO-C469Y; assay: as above; format: cell-based, mice; conditions: 5 μM vismodegib
# From the text: as §1, §2, §3
# [11] = system: SMO-A459V expressing CGNPs; assay: as above; format: cell-based, mice; conditions: high concentrations of vismodegib, FIGS. 14D and 15E
# From the text: (§8) It has previously been noted that Hh-driven tumor cells rapidly lose their Hh pathway dependence during culturing (Sasai et al., 2006). However, CGNPs proliferate in vivo in a Hh dependent manner and maintain their Hh pathway dependence in culture for a finite period (Wechsler-Reya and Scott, 1999). CGNPs isolated from Ptch1loxp/loxp Tp53loxp/loxp Rosa26LSL-tdTomato (PPT) pups were infected with lentiviral constructs expressing a SMO variant together with an enhanced green fluorescent protein (eGFP)-Cre fusion protein (FIG. 12C). The Cre recombinase induces loss of Ptch1 and thus ensures that only transduced CGNPs can proliferate in the absence of exogenous Sonic hedgehog ligand (SHH; FIG. 11D). […] Proliferation by methyl-[3H]-thymidine incorporation was monitored, while Cre-dependent tandem dimer (td) Tomato expression enabled visualization and quantification of infected cells.
# as §2, with “After 24 hr, cells were harvested by trypsinization, collected in CGNP media and replated for downstream applications.” left out
# (§9) To examine the effects of HPIs on proliferation, virally transduced CGNPs were plated in poly-D-lysine-coated 96-well plates (Corning) at 25,000 cells/well in CGNP media without SHH. […] Cells were harvested onto 96-well filter plates (Perkin Elmer) using a Filtermate Cell Harvester (Perkin Elmer), and incorporated radioactivity was quantified by liquid scintillation spectrophotometry on a TopCount NXT (PerkinElmer).
# [12] = system: SMO-T241M expressing CGNPs; assay: as above; format: cell-based, mice; conditions: high concentrations of vismodegib, FIGS. 14D and 15E
# From the text: as §8
# as §2, with “After 24 hr, cells were harvested by trypsinization, collected in CGNP media and replated for downstream applications.” left out
# as §9
# [13] = system: SMOW535L expressing CGNPs; assay: as above; format: cell-based, mice; conditions: high concentrations of vismodegib, FIGS. 14D and 15E
# From the text: as §8
# as §2, with “After 24 hr, cells were harvested by trypsinization, collected in CGNP media and replated for downstream applications.” left out
# as §9
# SMO-L515A = SMO-L515A (Homo sapiens, UniProt Q99835, L515A); conditions: L515A expressed, activating; 1 mM vismodegib; cited from earlier work
# SMO-E518K and E518A = conditions: cited from earlier work
# [14] = system: SMO-D473 mutants (all aa except P); conditions: cited from earlier work
# SMO-D473H = SMO-D473H (Homo sapiens, UniProt Q99835, D473H); conditions: cited from earlier work
# [15] = system: metastatic and locally advanced BCC; conditions: cited from earlier work
# medulloblastoma = conditions: initial response; no durable response, relapse of the tumor; cited from earlier work
# T2 sequence (Q99835 28-787 D384N): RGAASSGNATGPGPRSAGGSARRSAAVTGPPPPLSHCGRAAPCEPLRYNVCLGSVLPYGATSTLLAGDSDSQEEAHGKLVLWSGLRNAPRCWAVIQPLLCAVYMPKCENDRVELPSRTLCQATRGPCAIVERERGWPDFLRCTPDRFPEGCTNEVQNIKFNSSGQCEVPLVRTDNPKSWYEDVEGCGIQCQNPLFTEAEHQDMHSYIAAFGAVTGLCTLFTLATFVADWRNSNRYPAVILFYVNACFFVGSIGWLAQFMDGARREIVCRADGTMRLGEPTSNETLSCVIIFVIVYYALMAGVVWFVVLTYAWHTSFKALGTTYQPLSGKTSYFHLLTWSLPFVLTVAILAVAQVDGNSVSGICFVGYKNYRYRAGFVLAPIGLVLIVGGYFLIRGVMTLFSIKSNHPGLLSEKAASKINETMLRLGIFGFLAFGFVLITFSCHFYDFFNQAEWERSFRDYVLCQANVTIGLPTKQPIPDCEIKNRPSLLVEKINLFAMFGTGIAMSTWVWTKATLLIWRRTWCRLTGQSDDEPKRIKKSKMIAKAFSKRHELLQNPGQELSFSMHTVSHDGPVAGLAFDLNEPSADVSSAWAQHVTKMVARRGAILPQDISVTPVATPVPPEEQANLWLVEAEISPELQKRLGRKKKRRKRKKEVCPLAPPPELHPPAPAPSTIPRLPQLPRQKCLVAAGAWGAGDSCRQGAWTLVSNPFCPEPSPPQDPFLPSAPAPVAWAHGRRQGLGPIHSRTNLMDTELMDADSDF
# T3 sequence (Q99835 28-787 N219D): as the sequence (Q99835 28-787 D384N) above, with N192D, N357D counted along it
# T4 sequence (Q99835 28-787 S387N): as the sequence (Q99835 28-787 D384N) above, with N357D, S360N counted along it
# Sequence of SMO-L515A (Q99835 28-787 L515A): as the sequence (Q99835 28-787 D384N) above, with N357D, L488A counted along it
# T1 sequence (Q99835 28-787 A459V): as the sequence (Q99835 28-787 D384N) above, with N357D, A432V counted along it
# Sequence of SMO-D473H (Q99835 28-787 D473H): as the sequence (Q99835 28-787 D384N) above, with N357D, D446H counted along it
# T5 sequence (Q99835 28-787 I408V): as the sequence (Q99835 28-787 D384N) above, with N357D, I381V counted along it
compound,measurement,setting,value
Cc1sc2c(c1C)C(c1ccc(Cl)cc1)=N[C@@H](CC(=O)OC(C)(C)C)c1nnc(C)n1-2 [JQ1],proliferation of PPT CGNPs expressing vismodegib-resistant SMO mutants,[1],reduced proliferation
same,residual proliferation in SMO-WT,"[2]; 1 μM JQ1 compared with 1 μM vismodegib, FIG. 16B",less residual proliferation
Cc1c(C(=O)Nc2ccc(N3C[C@@H](C)O[C@@H](C)C3)nc2)cccc1-c1ccc(OC(F)(F)F)cc1 [LDE-225],sensitivity to LDE-225,SMO-N219D [3],N219D reduced
same,sensitivity to LDE-225,SMO-L221R,L221R reduced
same,sensitivity to LDE-225,SMO-D384N [4],D384N reduced
same,sensitivity to LDE-225,SMO-S387N [5],S387N reduced
CS(=O)(=O)c1ccc(C(=O)Nc2ccc(Cl)c(-c3ccccn3)c2)c(Cl)c1 [vismodegib],sensitivity to vismodegib,SMO-A459V,decreased sensitivity
same,sensitivity to vismodegib compared to SMO-WT,SMO-D384N [6],reduced sensitivity; also recorded: D384N reduced
same,sensitivity to vismodegib compared to SMO-WT,SMO-N219D [7],reduced sensitivity; also recorded: N219D reduced
same,sensitivity to vismodegib compared to SMO-WT,SMO-S387N [8],reduced sensitivity; also recorded: S387N reduced
same,binding of [3H]-labeled vismodegib,SMO-I408V,impaired
same,vismodegib binding,activating SMO mutants,impaired
same,proliferation in the presence of vismodegib,[9],continuing to proliferate
same,proliferation in the presence of vismodegib,[10],continued to proliferate at near untreated levels
same,IC50,"[2]; Mus musculus, SMO-WT and Cre, FIG. 12D",~0.022 µM
same,vismodegib concentration at which proliferation was maximally inhibited,[2]; SMO-WT and Cre,100 nM
same,proliferation in the presence of vismodegib,[11],continued to proliferate
same,proliferation in the presence of vismodegib,[12],continued to proliferate
same,proliferation in the presence of vismodegib,[13],continued to proliferate
same,inhibition by vismodegib,SMO-L515A,"activating, sensitive"
same,sensitivity to vismodegib,SMO-E518K and E518A,reduced sensitivity to
same,sensitivity to vismodegib,[14],reduce sensitivity to
same,drug binding in vitro,SMO-D473H,abrogate drug binding
same,clinical response of BCC patients treated with vismodegib,"[15]; majority of BCC patients, complete and partial responses",clinical benefit
same,advanced BCC patients that develop resistance to vismodegib,"[15]; within the first year of treatment, preliminary estimate",up to 20%
same,response of a patient to treatment,medulloblastoma,dramatic response
